Data taken from patent US20080293820A1, “METHODS FOR IMPROVING PHYSICAL FUNCTION IN FIBROMYALGIA” (Cypress Bioscience, Inc., priority 2007, published 2008).
Structures can show the parent of a compound that is named as a salt.

Test system: patients who meet the 1990 ACR criteria for fibromyalgia syndrome
Assay: Example 2: multicenter, double-blind, randomized, placebo-controlled monotherapy study of milnacipran for treatment of fibromyalgia (1196 patients)
Format: in vivo, human
Set-up: Mean Change from Baseline in PFI SF-36 domain score / Mean Change from Baseline in ROLP SF-36 domain score / Mean Change from Baseline in PAIN SF-36 domain score / Mean Change from Baseline in GHP SF-36 domain score: scale not given here
Settings: for time-weighted average (AUC) of SF-36 PCS Scores, Median / time-weighted average (AUC) of SF-36 PCS Scores, Mean: Visits Tx3-Tx15, intent to treat; for Composite Pain: number of responders / Composite Syndrome: number of responders / PGIC Component: number of responders / Pain Component: number of responders / SF36 PCS Component: number of responders: 200 mg (396); for time-weighted average (AUC) of SF-36 PCS Scores, Difference from Placebo / time-weighted average (AUC) of SF-36 PCS Scores, LS Mean: Tx3-Tx15, ANCOVA model
Protocol: The primary outcome was a composite responder analysis assessing response rates of two doses (100 mg/day and 200 mg/day) of milnacipran as compared with placebo at Visit Tx15 (week 15).
This was a multicenter, randomized, double-blind, placebo-controlled three-arm study designed which enrolled 1196 patients who meet the 1990 ACR criteria for fibromyalgia syndrome (history of widespread pain and pain in 11 of 18 tender point sites on digital palpation), as well as the more detailed admission criteria outlined in the protocol.
Patients were randomized to receive placebo, 100 mg/day milnacipran or 200 mg/day milnacipran in a ratio of 1:1:1 (placebo=401 patients, 100 mg/day=399 patients, 200 mg/day=396 patients). The patients assigned to the two active treatment arms received a total of 12 weeks of stable-dose milnacipran exposure after the 3 weeks of dosage escalation steps, for a total of 15 weeks of drug exposure. All randomized medications (placebo and milnacipran) were administered twice a day (BID).
The primary efficacy assessment of this study was a composite responder status defined by three domains of interest evaluated at visit Tx15. The domains measured were
1) pain (measured by an electronic diary in the morning as a daily recall pain score); 2) patient global (measured by the PGIC, 1-7 scale); 3) physical function (measured by the SF-36 PCS).
The secondary efficacy parameters were time-weighted average (AUC) of the weekly average PED morning recall pain scores for Weeks 4 through 15, PGIC, and SF-36 PCS for Visit Tx3 to Visit Tx15.
The physical function domain for response analysis was measured by the Physical Component Summary of SF-36 (SF-36 PCS). The SF-36 is a brief, well-established, self-administered patient questionnaire for the assessment of health status, functional status, and quality of life. The SF-36 measures eight domains of health status: physical functioning, role limitations due to physical problems, bodily pain, general health perceptions, energy/vitality, social functioning, role limitations due to emotional problems, and mental health. An SF-36 PCS score and a mental component summary (MCS) score can be calculated by combining and weighting the various individual scales. The PCS and MCS scores have been standardized to have a mean=50, SD=10 in the general healthy US population (see, e.g., Ware, J., M. Kosinski, and J. Dewey, How to Score Version 2 of the SF-36 Health Survey (Standard & Acute Forms). 3rd ed. 2000, Lincoln, R.I.: QualityMetric).
A patient was classified as a responder for the treatment of pain of fibromyalgia if he or she reached Visit Tx15 and satisfied the following criteria: • Greater than or equal to 30% in pain reduction from baseline; • PGIC rated as “much or very much improved,” (i.e., a score of 1 or 2 on the 1-7 scale at endpoint.)
A patient was classified as a responder for the treatment of FMS if he or she satisfied the responder criteria for the treatment of pain of fibromyalgia and the following additional criterion (at visit Tx15): • Improvement on the SF-36 PCS score from baseline by an amount at least equivalent to the minimal clinically important difference, as defined in the Statistical Analysis Plan.
Table 6 summarizes 3-month results for the Baseline Observation Carried Forward (BOCF), Last Observation Carried Forward (LOCF) and study completer (OC) populations. LOCF is an analysis in which observations are carried forward to the last time point for patients who dropped out. The LOCF analysis treats the carried-forward data as observed data at the last time point. BOCF is an analysis that requires that the patient remain active in the trial to be evaluated for response. If a patient withdrew from the trial for any reason, they were classified as a non-responder irregardless of their pain and global scores at the time of withdrawal. […]

SMILES: CCN(CC)C(=O)C1(c2ccccc2)CC1CN (racemic) [milnacipran, Z-2-aminomethyl-1-phenyl-N,N-diethylcyclopropanecarboxamide hydrochloride]
- time-weighted average (AUC) of SF-36 PCS Scores, Median (100 mg, OC): 432.8
- Composite Pain: number of responders (3-months, BOCF): 98
- Composite Syndrome: number of responders (3-months, BOCF): 55
- PGIC Component: number of responders (3-months, BOCF): 129
- Pain Component: number of responders (3-months, BOCF): 119
- SF36 PCS Component: number of responders (3-months, BOCF): 89
- Composite Pain: number of responders (3-months, LOCF): 117
- Composite Syndrome: number of responders (3-months, LOCF): 65
- PGIC Component: number of responders (3-months, LOCF): 151
- Pain Component: number of responders (3-months, LOCF): 158
- SF36 PCS Component: number of responders (3-months, LOCF): 109
- Composite Pain: responder rate (200 mg, 3-months, BOCF): (24.75%)
- Composite Pain: responder rate difference from placebo (unlabelled line) (200 mg, 3-months, BOCF): 8.29%
- Composite Syndrome: responder rate (200 mg, 3-months, BOCF): (13.89%)
- Composite Syndrome: responder rate difference from placebo (unlabelled line) (200 mg, 3-months, BOCF): 5.16%
- PGIC Component: responder rate (200 mg, 3-months, BOCF): (32.58%)
- PGIC Component: responder rate difference from placebo (unlabelled line) (200 mg, 3-months, BOCF): 9.64%
- Pain Component: responder rate (200 mg, 3-months, BOCF): (30.05%)
- Pain Component: responder rate difference from placebo (unlabelled line) (200 mg, 3-months, BOCF): 4.86%
- SF36 PCS Component: responder rate (200 mg, 3-months, BOCF): (22.47%)
- SF36 PCS Component: responder rate difference from placebo (unlabelled line) (200 mg, 3-months, BOCF): 1.02%
- Composite Pain: responder rate (200 mg, 3-months, LOCF): (29.55%)
- Composite Pain: responder rate difference from placebo (unlabelled line) (200 mg, 3-months, LOCF): 11.35%
- Composite Syndrome: responder rate (200 mg, 3-months, LOCF): (16.41%)
- Composite Syndrome: responder rate difference from placebo (unlabelled line) (200 mg, 3-months, LOCF): 6.68%
- PGIC Component: responder rate (200 mg, 3-months, LOCF): (38.13%)
- PGIC Component: responder rate difference from placebo (unlabelled line) (200 mg, 3-months, LOCF): 13.19%
- Pain Component: responder rate (200 mg, 3-months, LOCF): (39.90%)
- Pain Component: responder rate difference from placebo (unlabelled line) (200 mg, 3-months, LOCF): 11.22%
- SF36 PCS Component: responder rate (200 mg, 3-months, LOCF): (27.53%)
- SF36 PCS Component: responder rate difference from placebo (unlabelled line) (200 mg, 3-months, LOCF): 2.09%
- Composite Pain: m/n = # of responders/# of patients included (200 mg, 3-months, OC): 98/215
- Composite Pain: responder rate (200 mg, 3-months, OC): (45.58%)
- Composite Pain: responder rate difference from placebo (unlabelled line) (200 mg, 3-months, OC): 20.39%
- Composite Syndrome: m/n = # of responders/# of patients included (200 mg, 3-months, OC): 55/215
- Composite Syndrome: responder rate (200 mg, 3-months, OC): (25.58%)
- Composite Syndrome: responder rate difference from placebo (unlabelled line) (200 mg, 3-months, OC): 12.22%
- PGIC Component: m/n = # of responders/# of patients included (200 mg, 3-months, OC): 129/255
- PGIC Component: responder rate (200 mg, 3-months, OC): (50.59%)
- PGIC Component: responder rate difference from placebo (unlabelled line) (200 mg, 3-months, OC): 18.76%
- Pain Component: m/n = # of responders/# of patients included (200 mg, 3-months, OC): 119/217
- Pain Component: responder rate (200 mg, 3-months, OC): (54.84%)
- Pain Component: responder rate difference from placebo (unlabelled line) (200 mg, 3-months, OC): 16.44%
- SF36 PCS Component: m/n = # of responders/# of patients included (200 mg, 3-months, OC): 89/255
- SF36 PCS Component: responder rate (200 mg, 3-months, OC): (34.90%)
- SF36 PCS Component: responder rate difference from placebo (unlabelled line) (200 mg, 3-months, OC): 5.24%
- time-weighted average (AUC) of SF-36 PCS Scores, Difference from Placebo (200 mg, LOCF): 8.36
- time-weighted average (AUC) of SF-36 PCS Scores, LS Mean (200 mg, LOCF): 420.38
- time-weighted average (AUC) of SF-36 PCS Scores, Difference from Placebo (200 mg, OC): 11.17
- time-weighted average (AUC) of SF-36 PCS Scores, LS Mean (200 mg, OC): 429.46
- Mean Change from Baseline in GHP SF-36 domain score (200 mg, Tx 15, Observed Cohort): 6.6
- Mean Change from Baseline in PAIN SF-36 domain score (200 mg, Tx 15, Observed Cohort): 18.2
- Mean Change from Baseline in PCS Score at Tx 15 (200 mg, Tx 15, Observed Cohort): 3.9
- Mean Change from Baseline in PFI SF-36 domain score (200 mg, Tx 15, Observed Cohort): 6.9
- Mean Change from Baseline in ROLP SF-36 domain score (200 mg, Tx 15, Observed Cohort): 14.9
- time-weighted average (AUC) of SF-36 PCS Scores, Mean (200 mg, LOCF): 418.97
- time-weighted average (AUC) of SF-36 PCS Scores, Median (200 mg, LOCF): 419.2
- time-weighted average (AUC) of SF-36 PCS Scores, Mean (200 mg, OC): 428.24
- time-weighted average (AUC) of SF-36 PCS Scores, Median (200 mg, OC): 428.4
